Measured values taken from the Kinase Knowledgebase extract (Sharma et al. 2016).

How the values were obtained:
PIK3CA (human) = PIK3CA (human) (UniProt P42336); assay: Assessment of PIK3CA Kinase Activity
PIK3CB (Human) = PIK3CB (Human) (UniProt P42338); assay: Assessment of PIK3CB Kinase Activity
PIK3CD (Human) = PIK3CD (Human) (UniProt O00329); assay: Assessment of PIK3CD Kinase Activity
Chain of PIK3CD (Human) (O00329 whole entry, looked up): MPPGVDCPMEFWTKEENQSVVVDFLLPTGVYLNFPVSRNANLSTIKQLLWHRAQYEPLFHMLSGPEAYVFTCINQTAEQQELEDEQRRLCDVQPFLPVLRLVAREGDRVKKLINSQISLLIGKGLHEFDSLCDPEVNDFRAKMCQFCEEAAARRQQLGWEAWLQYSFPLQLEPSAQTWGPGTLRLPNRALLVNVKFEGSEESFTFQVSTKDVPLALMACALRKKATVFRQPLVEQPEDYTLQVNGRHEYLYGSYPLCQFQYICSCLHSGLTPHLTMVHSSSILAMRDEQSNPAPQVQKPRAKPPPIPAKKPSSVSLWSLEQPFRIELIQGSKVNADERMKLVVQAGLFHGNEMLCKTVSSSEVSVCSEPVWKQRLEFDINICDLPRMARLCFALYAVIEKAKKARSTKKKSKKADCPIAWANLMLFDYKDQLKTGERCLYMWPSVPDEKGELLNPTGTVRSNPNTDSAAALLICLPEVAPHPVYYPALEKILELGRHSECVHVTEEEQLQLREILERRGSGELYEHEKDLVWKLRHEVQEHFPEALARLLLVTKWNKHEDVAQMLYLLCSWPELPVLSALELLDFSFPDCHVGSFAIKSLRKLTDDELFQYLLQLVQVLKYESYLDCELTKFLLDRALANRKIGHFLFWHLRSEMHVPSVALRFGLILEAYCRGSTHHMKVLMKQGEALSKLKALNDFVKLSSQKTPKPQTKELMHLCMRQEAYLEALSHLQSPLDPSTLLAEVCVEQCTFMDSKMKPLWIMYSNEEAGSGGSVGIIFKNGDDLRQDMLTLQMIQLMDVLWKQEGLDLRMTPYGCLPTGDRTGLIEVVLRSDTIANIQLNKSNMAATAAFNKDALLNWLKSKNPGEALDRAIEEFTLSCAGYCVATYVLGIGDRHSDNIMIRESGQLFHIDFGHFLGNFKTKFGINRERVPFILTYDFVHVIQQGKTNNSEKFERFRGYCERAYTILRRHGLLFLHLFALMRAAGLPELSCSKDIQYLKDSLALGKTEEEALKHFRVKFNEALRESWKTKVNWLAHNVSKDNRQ

Chain of PIK3CA (human) (P42336 whole entry, looked up): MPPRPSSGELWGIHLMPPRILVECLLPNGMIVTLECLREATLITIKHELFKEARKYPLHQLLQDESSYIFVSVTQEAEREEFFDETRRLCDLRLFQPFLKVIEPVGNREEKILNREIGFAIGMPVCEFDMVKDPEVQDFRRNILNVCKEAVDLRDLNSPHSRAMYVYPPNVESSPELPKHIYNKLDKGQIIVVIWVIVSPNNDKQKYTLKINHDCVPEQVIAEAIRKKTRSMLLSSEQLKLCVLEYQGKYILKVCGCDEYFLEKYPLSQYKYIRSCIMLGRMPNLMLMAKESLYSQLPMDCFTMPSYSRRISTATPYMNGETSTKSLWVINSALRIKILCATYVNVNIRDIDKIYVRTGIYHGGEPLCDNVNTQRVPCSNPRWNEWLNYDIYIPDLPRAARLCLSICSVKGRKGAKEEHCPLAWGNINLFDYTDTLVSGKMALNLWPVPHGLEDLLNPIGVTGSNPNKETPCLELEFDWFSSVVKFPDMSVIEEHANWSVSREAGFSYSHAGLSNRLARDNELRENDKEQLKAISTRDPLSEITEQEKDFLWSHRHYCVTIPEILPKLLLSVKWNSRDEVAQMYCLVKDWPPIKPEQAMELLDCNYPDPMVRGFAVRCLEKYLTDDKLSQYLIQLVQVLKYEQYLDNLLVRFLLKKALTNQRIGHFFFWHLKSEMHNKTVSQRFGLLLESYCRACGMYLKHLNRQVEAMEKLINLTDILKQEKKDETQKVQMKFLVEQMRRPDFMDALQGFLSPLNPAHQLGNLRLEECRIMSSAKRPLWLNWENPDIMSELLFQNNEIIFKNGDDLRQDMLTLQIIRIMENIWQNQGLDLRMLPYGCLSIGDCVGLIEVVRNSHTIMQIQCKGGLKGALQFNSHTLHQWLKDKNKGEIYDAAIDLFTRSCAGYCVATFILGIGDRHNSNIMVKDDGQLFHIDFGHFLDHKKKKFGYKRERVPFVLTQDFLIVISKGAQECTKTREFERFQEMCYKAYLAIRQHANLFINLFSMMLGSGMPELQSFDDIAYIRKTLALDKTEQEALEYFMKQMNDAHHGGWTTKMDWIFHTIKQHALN
Chain of PIK3CB (Human) (P42338 whole entry, looked up): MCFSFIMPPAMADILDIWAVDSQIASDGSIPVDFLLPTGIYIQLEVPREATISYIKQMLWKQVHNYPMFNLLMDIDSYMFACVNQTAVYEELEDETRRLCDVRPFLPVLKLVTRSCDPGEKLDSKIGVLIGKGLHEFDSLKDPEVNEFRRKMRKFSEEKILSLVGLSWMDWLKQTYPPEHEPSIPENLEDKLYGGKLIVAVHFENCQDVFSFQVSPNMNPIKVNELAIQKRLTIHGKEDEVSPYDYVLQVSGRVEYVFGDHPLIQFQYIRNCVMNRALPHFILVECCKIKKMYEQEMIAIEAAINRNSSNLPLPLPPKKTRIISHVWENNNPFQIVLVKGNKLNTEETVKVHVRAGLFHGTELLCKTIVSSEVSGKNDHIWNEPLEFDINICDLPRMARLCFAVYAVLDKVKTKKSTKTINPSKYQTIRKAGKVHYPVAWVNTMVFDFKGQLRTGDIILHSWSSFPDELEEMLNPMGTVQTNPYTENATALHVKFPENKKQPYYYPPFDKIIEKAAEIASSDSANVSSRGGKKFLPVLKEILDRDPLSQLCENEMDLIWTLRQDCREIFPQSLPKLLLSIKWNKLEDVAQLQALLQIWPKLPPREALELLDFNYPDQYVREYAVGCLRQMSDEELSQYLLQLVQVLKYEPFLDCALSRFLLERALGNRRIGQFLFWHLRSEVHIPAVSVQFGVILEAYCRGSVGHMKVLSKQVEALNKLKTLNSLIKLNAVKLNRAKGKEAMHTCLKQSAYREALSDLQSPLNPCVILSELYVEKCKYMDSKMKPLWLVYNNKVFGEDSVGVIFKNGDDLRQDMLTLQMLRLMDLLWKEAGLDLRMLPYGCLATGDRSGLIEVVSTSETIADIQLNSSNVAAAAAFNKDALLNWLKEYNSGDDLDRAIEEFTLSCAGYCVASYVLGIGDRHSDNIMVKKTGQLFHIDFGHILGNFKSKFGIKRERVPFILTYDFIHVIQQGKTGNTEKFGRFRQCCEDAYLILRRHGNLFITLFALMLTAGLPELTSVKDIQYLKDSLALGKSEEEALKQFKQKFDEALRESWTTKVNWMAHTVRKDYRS

IC50 (PIK3CA (human)) [nM]	IC50 (PIK3CB (Human)) [nM]	IC50 (PIK3CD (Human)) [nM]	Structure (SMILES)
< 100	100 to 1000	< 100	COc1cc(N)cc2c1nc(C(F)F)n2-c1nc(N2CCOCC2)nc(N2CCN(S(=O)(=O)CCN(C)C)CC2)n1
< 100	100 to 1000	100 to 1000	COc1cccc2c1nc(C(F)F)n2-c1nc(N2CCOCC2)c2cnn(C3CCN(S(=O)(=O)CCN(C)C)CC3)c2n1
100 to 1000	–	100 to 1000	COc1cccc2c1nc(C(F)F)n2-c1nc(N2CCOCC2)nc(N2CCC[C@H](N(CCCN(C)C)S(C)(=O)=O)C2)n1
< 100	–	< 100	COc1cccc2c1nc(C(F)F)n2-c1nc(OC2CCN(S(=O)(=O)CCN3CCOCC3)CC2)nc(N2CCOCC2)n1
100 to 1000	–	100 to 1000	CN(C)CCCOc1cccc2c1nc(C(F)F)n2-c1nc(OC2CCN(S(C)(=O)=O)CC2)nc(N2CCOCC2)n1
100 to 1000	–	–	COc1cccc2c1nc(C(F)F)n2-c1nc(-c2ccc(S(=O)(=O)N3CCN(C)CC3)cc2)nc(N2CCOCC2)n1
100 to 1000	–	100 to 1000	CN(C)CCS(=O)(=O)N1CCN(c2nc(N3CCOCC3)nc(-n3c(C(F)F)nc4ccccc43)n2)CC1
100 to 1000	–	< 100	COc1cccc2c1nc(C(F)F)n2-c1nc(N2CCOCC2)nc(N(CCCN(C)C)C2CCN(S(=O)(=O)CCl)CC2)n1
100 to 1000	–	100 to 1000	COc1cccc2c1nc(C(F)F)n2-c1nc(-c2ccc(N(C)S(=O)(=O)CCN(C)C)cc2)nc(N2CCOCC2)n1
